The values that follow come from patent publication US11214803B2, “Modulators of YAP1 expression” (Ionis Pharmaceuticals, Inc., priority 2019, dated 2022).

Strand notation (5' to 3'): a small letter for the sugar, then the base; units joined by * are phosphorothioate-linked, units joined directly phosphodiester-linked; [ ] holds rarer units or linkages, { } end groups; capitals alone tell only the bases. k = constrained ethyl (cEt); [5mC] = 5-methylcytosine; d = 2'-deoxy (DNA)

The subject of this series is Yap1 mRNA. Briefly: Antisense inhibition of human Yap1 in A-431 cells by cEt gapmers, single dose (Example 4, RTS4814). It is filed as cell-based. Put shortly: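 A-431 cells took up 3-10-3 cEt gapmers (16-mer, full phosphorothioate, 5-methylcytosines) by free uptake at 2,000 nM for about 48 h. Yap1 mRNA was quantified by qRT-PCR, normalized to total RNA (RIBOGREEN), and reported as % of untreated control.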

Where [1] appears, read: table after Table 37, headed TABLE 32 (gapmers targeting SEQ ID NO.: 3), A-431 cells, free uptake, 2,000 nM, approximately 48 hours, RTS4814.
Setting [2] is: Table 15, A-431 cells, 5,000 cells per well, free uptake, 2,000 nM, approximately 48 hours, RTS4814, normalized to RIBOGREEN, Yap1 mRNA relative to untreated control, * = targets amplicon region of primer probe set.
Where [3] appears, read: Table 14, A-431 cells, 5,000 cells per well, free uptake, 2,000 nM, approximately 48 hours, RTS4814, normalized to RIBOGREEN, Yap1 mRNA relative to untreated control, * = targets amplicon region of primer probe set.
The mark [4] stands for this setting: Table 17, A-431 cells, 5,000 cells per well, free uptake, 2,000 nM, approximately 48 hours, RTS4814, normalized to RIBOGREEN, Yap1 mRNA relative to untreated control cells.
Setting [5] is: Yap1 mRNA remaining as percent of untreated control, 3-10-3 cEt gapmers, A-431 cells, Table 36.
The mark [6] stands for this setting: Yap1 mRNA remaining as percent of untreated control, 3-10-3 cEt gapmers, A-431 cells, Table 37.
Setting [7] is: Table 16, A-431 cells, 5,000 cells per well, free uptake, 2,000 nM, approximately 48 hours, RTS4814, normalized to RIBOGREEN, Yap1 mRNA relative to untreated control cells.

With “1074881 (k[5mC]*kT*kA*dA*d[5mC]*dT*d[5mC]*d[5mC]*dT*dG*d[5mC]*d[5mC]*dG*kA*kA*kG; antisense) [compound 1074881]”, the “YAP1 (% UTC)” value under setting [1] stood at 76 % UTC. Regarding “1075457 (antisense kA*kG*kT*dA*dA*dT*dA*dT*dG*dT*dA*d[5mC]*dA*kT*kG*kG) [Compound 1075457]”, the “YAP1 (% UTC)” value under setting [2] stood at 5 % UTC. Consider “1076000 (k[5mC]*k[5mC]*kT*dA*dA*dT*dA*dT*dG*dA*d[5mC]*dT*d[5mC]*k[5mC]*kT*kT; antisense) [Compound 1076000]”, for which the “YAP1 (% UTC)” value under setting [3] came to 4 % UTC.

Consider “1075491 (antisense kG*kA*k[5mC]*dG*dG*dA*dA*dG*dT*dT*dG*d[5mC]*dA*kA*kG*kG) [Compound 1075491]”, for which, under setting [4], the “YAP1 (% UTC)” value came out at 93 % UTC. Consider “1076064 (kT*kA*kT*dG*dA*dA*d[5mC]*dA*dA*dT*dG*dT*dA*k[5mC]*kT*k[5mC]; antisense) [Compound 1076064]”, for which, under setting [3], the “YAP1 (% UTC)” value was 5 % UTC.

Regarding “1074742 (kA*kA*kA*dG*dG*dA*d[5mC]*dT*d[5mC]*dT*dT*dA*dG*kG*kT*k[5mC]; antisense) [compound 1074742]”, under setting [5], the “YAP1 (% UTC)” value is 25 % UTC. As for “1074305 (antisense k[5mC]*kA*k[5mC]*d[5mC]*dT*dG*d[5mC]*d[5mC]*dG*dA*dA*dG*d[5mC]*kA*kG*kT) [Compound 1074305]”, the “YAP1 (% UTC)” value under setting [2] is listed as 64 % UTC.

In the case of “1075767 (kT*kA*kT*dT*dA*d[5mC]*dA*d[5mC]*dA*dG*dG*d[5mC]*dA*kG*kG*k[5mC]; antisense) [compound 1075767]”, the “YAP1 (% UTC)” value under setting [6] is recorded as 12 % UTC.

With “1074979 (antisense kA*kT*kT*dG*d[5mC]*d[5mC]*dA*dG*dT*dT*d[5mC]*dT*dT*kG*kT*kT) [Compound 1074979]”, the “YAP1 (% UTC)” value under setting [4] came out at 32 % UTC. Turning to “1074838 (kA*kT*kA*dA*d[5mC]*dA*dA*d[5mC]*dA*dT*dG*d[5mC]*dT*kT*kG*k[5mC]; antisense) [compound 1074838]”, the “YAP1 (% UTC)” value under setting [5] came to 9 % UTC.

For the substance “1074915 (antisense kA*kG*kT*dT*dA*d[5mC]*dA*dT*d[5mC]*d[5mC]*d[5mC]*dG*dA*kG*kT*kG) [Compound 1074915]”, the “YAP1 (% UTC)” value under setting [4] was found to be 65 % UTC. For “1074851 (antisense kA*kT*kT*dG*dT*dT*dA*dT*dG*dA*dT*dA*dG*kG*k[5mC]*kA) [Compound 1074851]”, the “YAP1 (% UTC)” value under setting [4] came to 6 % UTC. For “1074467 (k[5mC]*kA*k[5mC]*d[5mC]*dG*dA*d[5mC]*d[5mC]*d[5mC]*dT*dG*d[5mC]*d[5mC]*kA*kA*kA; antisense) [Compound 1074467]”, the “YAP1 (% UTC)” value under setting [4] was determined as 31 % UTC.

As for “1075126 (k[5mC]*kT*kT*dA*dA*dA*dT*d[5mC]*dT*dT*dA*dG*d[5mC]*kA*kA*k[5mC]; antisense) [compound 1075126]”, under setting [5], the “YAP1 (% UTC)” value turned out to be 20 % UTC.

As for “1075254 (kT*k[5mC]*k[5mC]*d[5mC]*dA*dA*dA*dA*dG*dT*d[5mC]*dA*dT*k[5mC]*kG*k[5mC]; antisense) [compound 1075254]”, the “YAP1 (% UTC)” value under setting [5] is on record as 28 % UTC. For the substance “1075937 (kA*k[5mC]*kT*dT*dA*dT*dA*dT*dT*d[5mC]*dT*d[5mC]*dT*k[5mC]*k[5mC]*kG; antisense) [Compound 1075937]”, under setting [2], the “YAP1 (% UTC)” value is 36 % UTC.

Take “1074403 (antisense kG*k[5mC]*kT*dT*dA*dT*dG*dG*dA*dA*dA*dT*dT*kT*k[5mC]*k[5mC]) [Compound 1074403]”: under setting [4], the “YAP1 (% UTC)” value was determined as 9 % UTC. For “1075191 (kA*k[5mC]*kG*dG*dG*dA*dA*dA*dG*dA*dA*dA*dG*kG*k[5mC]*k[5mC]; antisense) [compound 1075191]”, under setting [6], the “YAP1 (% UTC)” value was 83 % UTC. As to “1074625 (antisense kA*kT*kA*dA*dG*dG*dG*d[5mC]*dT*dT*dA*dT*dT*k[5mC]*kT*kA) [Compound 1074625]”, the “YAP1 (% UTC)” value under setting [2] worked out at 42 % UTC. For the substance “1074886 (k[5mC]*kA*kG*dG*dG*d[5mC]*dT*dA*dA*d[5mC]*dT*d[5mC]*d[5mC]*kT*kG*k[5mC]; antisense) [compound 1074886]”, the “YAP1 (% UTC)” value under setting [1] was 104 % UTC. As to “1075383 (antisense kA*kA*kT*dT*dA*dT*dT*dA*d[5mC]*d[5mC]*d[5mC]*dT*dA*k[5mC]*kT*k[5mC]) [compound 1075383]”, under setting [6], the “YAP1 (% UTC)” value was found to be 45 % UTC.

In the case of “1075842 (kG*kT*kA*dT*dT*dT*dA*dG*dG*dT*dA*d[5mC]*dT*k[5mC]*kA*kG; antisense) [Compound 1075842]”, the “YAP1 (% UTC)” value under setting [7] was 2 % UTC. As for “1075264 (antisense kG*kA*kA*dT*dA*dA*dT*dA*dT*dG*d[5mC]*dA*dG*kA*kA*k[5mC]) [Compound 1075264]”, the “YAP1 (% UTC)” value under setting [3] amounted to 53 % UTC. Regarding “1074839 (kT*kA*kT*dA*dA*d[5mC]*dA*dA*d[5mC]*dA*dT*dG*d[5mC]*kT*kT*kG; antisense) [compound 1074839]”, under setting [6], the “YAP1 (% UTC)” value is reported as 33 % UTC.

Regarding “1075042 (antisense kT*kT*kA*dA*dA*dA*dG*dG*dT*dT*dT*dG*dG*k[5mC]*kA*k[5mC]) [Compound 1075042]”, the “YAP1 (% UTC)” value under setting [7] is 17 % UTC. Consider “1075104 (antisense kA*kT*kT*dA*dT*dA*dA*dG*dG*dT*d[5mC]*d[5mC]*dT*kA*k[5mC]*kA) [Compound 1075104]”, for which, under setting [3], the “YAP1 (% UTC)” value came to 67 % UTC.

“1076032 (kT*kA*kT*dA*dA*dT*dT*dT*d[5mC]*d[5mC]*d[5mC]*dT*dG*kA*kT*k[5mC]; antisense) [Compound 1076032]”: the “YAP1 (% UTC)” value under setting [3] was 105 % UTC. As for “1075712 (kG*kA*k[5mC]*dG*d[5mC]*dG*dA*dA*dA*dT*dA*d[5mC]*dT*kT*kA*k[5mC]; antisense) [Compound 1075712]”, the “YAP1 (% UTC)” value under setting [3] is 7 % UTC. With “1074561 (antisense kA*kA*kT*dT*d[5mC]*d[5mC]*dA*dA*dT*d[5mC]*dG*dA*dG*kA*k[5mC]*kT) [Compound 1074561]”, the “YAP1 (% UTC)” value under setting [2] was determined as 10 % UTC. On to “1075232 (antisense kA*kT*kT*dT*dA*dT*d[5mC]*dA*dG*d[5mC]*d[5mC]*dA*dT*kT*kG*kT) [Compound 1075232]”, for which, under setting [3], the “YAP1 (% UTC)” value stood at 13 % UTC. Consider “1075234 (antisense kG*kT*kA*dA*dA*dT*dA*d[5mC]*dT*d[5mC]*dT*dA*dG*kT*kT*k[5mC]) [Compound 1075234]”, for which the “YAP1 (% UTC)” value under setting [7] was determined as 22 % UTC. In the case of “1074146 (antisense kG*kA*kA*dG*d[5mC]*dG*dG*d[5mC]*dG*dA*d[5mC]*dG*dG*k[5mC]*kT*kG) [Compound 1074146]”, the “YAP1 (% UTC)” value under setting [7] came to 91 % UTC. As to “1075778 (k[5mC]*kA*kT*dT*dT*dA*dT*dA*d[5mC]*d[5mC]*dA*dG*dG*k[5mC]*kA*k[5mC]; antisense) [Compound 1075778]”, under setting [7], the “YAP1 (% UTC)” value is given as 3 % UTC. “1076259 (kA*kT*kT*dT*dA*dA*d[5mC]*dT*d[5mC]*d[5mC]*dT*dG*dA*kA*kG*kT; antisense) [Compound 1076259]”: under setting [4], the “YAP1 (% UTC)” value is 61 % UTC. Turning to “1076290 (k[5mC]*kT*k[5mC]*d[5mC]*dA*dA*d[5mC]*dG*dG*dA*d[5mC]*dA*dA*k[5mC]*kT*kT; antisense) [Compound 1076290]”, under setting [7], the “YAP1 (% UTC)” value is 28 % UTC.

Turning to “1074902 (antisense k[5mC]*kT*kA*dT*dT*dA*dA*d[5mC]*dT*dT*dT*dT*dG*kG*kG*k[5mC]) [compound 1074902]”, under setting [5], the “YAP1 (% UTC)” value is reported as 54 % UTC. As for “1075747 (kA*kT*kT*dT*dA*dG*d[5mC]*dA*dT*dG*dA*dT*dT*kA*kA*k[5mC]; antisense) [Compound 1075747]”, under setting [4], the “YAP1 (% UTC)” value worked out at 43 % UTC.
